Experimental data taken from patent US20040219106A1, “Compounds for use as surfactants” (priority 2001, published 2004).

Tests used:
Assay type in all cases: physicochemical
[1] = Particle size of salmeterol xinafoate HFA 134a suspension by image analysis (Galai CIS-100)
Protocol: (§1) Salmeterol xinafoate formulations in HFA 134a (1,1,1,2-tetrafluoroethane), of strength 25 μg per actuation, and 10% w/w (relative to drug) of the surfactant compound of Example 1 (Bis(4,4,5,5,5-pentafluopentanoyl)phosphatidylcholine) were prepared using salmeterol xinafoate (5.8 mg), HFA 134a (12 g) and the relevant compound (0.58 mg). The control was prepared without the addition of a surfactant.
In this measurement, particle size is represented as the equivalent diameter of a circle of equal area to the object. The mean is the average of 4 determinations. The particle size measurement was obtained by transferring the suspensions to a presurised cell, and video-imaging the sample under shear via a microscope objective.
The equivalent diameter is defined as the diameter of a circle of equal area to the object. [formula]
The mean equivalent diameter can be weighted by number, length or volume. e.g. For three particles with equivalent diameters of x, y and z: [formula]

[2] = Content uniformity by dose through use testing; details: for BuO dose: actuations 1+2, mean of 10 inhalers; for EuO dose: actuations 119+120, mean of 10 inhalers
Protocol: as §1
The content uniformity of the formulation, the preparation of which is described above, was assessed by dose through use testing. Testing was performed on 10 cans/inhalers at “beginning of use” (BoU) and “end of use” (EoU). After each inhaler had been primed (4 shots fired to waste), actuations 1 and 2 (BoU) were collected. The next 116 actuations of each inhaler were then fired to waste using an automated method and actuations 119 and 120 (EoU) collected.
Assesment of content uniformity was performed intially (following sample preparation) and then on a further 10 inhalers for each timepoint, 8 weeks and 3 months, which were stored at 40° C./75% RH. Mean results from the two BoU actuations (1+2 for 10 inhalers) and the two EoU actuations (119+120 for same 10 inhalers) at each timepoint together with the percentage relative standard deviation (% RSD) for the 10 cans are shown in Table 3.

[3] = Andersen Cascade Impaction of salmeterol xinafoate HFA 134a formulation; details: for % FPM (FPM as percentage of total dose emitted ex-valve) / FPM (fine particle mass, sum of stages 3-5) / Total Dose Emitted (Ex-Actuator) / Total Dose Emitted (Ex-Valve): BoU, mean of 3 cans/inhalers
Protocol: as §1
The formulation, the preparation of which is described above, was profiled using an Andersen Cascade Impactor. Ten actuations at “beginning of use” (BoU) were collected in the impactor from an inhaler after 4 priming actuations were fired to waste. The drug delivered was then quantified by HPLC analysis. Testing was performed intially (following sample preparation) and then after inhalers had been stored at 40° C./75% RH for 8 weeks and for 3 months. The results, at each timepoint, in Table 2 are shown as the mean analysis of 3 cans/inhalers.
The profile obtained was used to determine total dose emitted dose (ex-valve and ex-actuator) and the fine particle mass (FPM, defined as the sum of stages 3-5). The percentage fine particle mass expresses the FPM as a percentage of the total dose emitted (ex-valve). The FPM is used as a measure of the proportion of the drug likely to reach the therapeutic target in the lungs.

[4] = in the presence of the surfactant

## C[N+](C)(C)CCOP(=O)([O-])OC[C@@H](COC(=O)CCC(F)(F)C(F)(F)F)OC(=O)CCC(F)(F)C(F)(F)F [Example 1, Bis(4,4,5,5,5-pentafluopentanoyl)phosphatidylcholine]
[1]; compound incorporated into the formulation
  change in average particle size (mean length weighted diameter) versus control: marked reduction
[1]; salmeterol xinafoate 25 μg per actuation in HFA 134a, 10% w/w surfactant relative to drug, average of 4 determinations
  Mean Length weighted diameter: 13.3 μm
[1]; salmeterol xinafoate in HFA 134a, 10% w/w surfactant
  suspension stabilising properties (discouraging flocculation of drug particles): suspension stabilising properties
[2]; 3 Month at 40° C./75% RH
  BuO dose: 19.7 µg
  EuO dose: 22.6 µg
[2]; 8 Week at 40° C./75% RH
  BuO dose: 20.3 µg
  EuO dose: 24.2 µg
[2]; 10 inhalers tested
  change in percentage RSD at EoU versus control (can to can reproducibility): reduction
[2]; Initial
  BuO dose: 19.6 µg
  EuO dose: 23.3 µg
[3]; 3 month at 40° C./75% RH
  % FPM (FPM as percentage of total dose emitted ex-valve): 42.5%
  FPM (fine particle mass, sum of stages 3-5): 10.4 µg
  Total Dose Emitted (Ex-Actuator): 20.1 µg
  Total Dose Emitted (Ex-Valve): 24.4 µg
[3]; 8 week at 40° C./75% RH
  % FPM (FPM as percentage of total dose emitted ex-valve): 44.2%
  FPM (fine particle mass, sum of stages 3-5): 10.4 µg
  Total Dose Emitted (Ex-Actuator): 19.5 µg
  Total Dose Emitted (Ex-Valve): 23.5 µg
[3]; Initial
  % FPM (FPM as percentage of total dose emitted ex-valve): 47.7%
  FPM (fine particle mass, sum of stages 3-5): 11.1 µg
  Total Dose Emitted (Ex-Actuator): 20.0 µg
[3]; Initial, 10% w/w surfactant
  Total Dose Emitted (Ex-Valve): 23.3 µg
[3]; [4]
  change in absolute FPM versus control: increase
  change in absolute doses emitted versus control: increase
  change in percentage FPM versus control: significant increase
